# Source: patent US20090088482A1, “Compositions and Methods For Treating Heart Failure” (The Trustees Of Columbia University In The City New York, priority 2003, published 2009)
# How the values were obtained:
# Format in all cases: in vivo, Sprague-Dawley rats
# [1] = tested on: rats with HF induced by LAD ligation; assay: Ex vivo end-diastolic pressure-volume relationships (EDPVR) (Example 5); details: for passive LV Volume at 30 mmHg, normalized for heart weight: ex vivo EDPVR, HF 0.50, Sham 0.36
# Method: (§1) A total of 69 rats were used in this study. LAD ligation surgery was performed in 60 rats, of which 37 (62%) survived three weeks post-surgery. Another 9 rats underwent a sham operation (group Sham), with 7 (78%) survivors. Three weeks post-operatively, echocardiography was performed to establish the baseline level of HF (as measured by fractional shortening). The LAD ligation rats were divided into 4 treatment groups matched for the degree of HF and were randomly assigned to one of the following therapies for 9 additional weeks: (1) rats receiving no therapy (group HF, n=9); (2) rats receiving high-dose clenbuterol at 1 mg/kg/day (group Clen, n=9); (3) rats receiving high-dose metoprolol at 200 mg/kg/day (group Meto, n=9); or (4) rats receiving concurrent high-dose clenbuterol at 1 mg/kg/day and high-dose metoprolol therapy at 200 mg/kg/day (group Clen+Meto, n=10).
# An 18-gauge angiocatheter was placed into the LV through the aortic valve and connected to a three-way stopcock. A fine hemostat was placed on the atrial side of the mitral annulus to seal the LV. After eliminating any air from the system, LV pressures were measured using a […] Millar micromanometer introduced through the angiocatheter. While recording LV pressure using an analog-to-digital conversion reading system (Chart 4, version 4.2.4; ADInstruments, Colorado Springs, Colo.), saline was infused into the LV cavity in 50 μL increments using a calibrated 1 mL syringe. The infused fluid was withdrawn and measured to ensure that no leakage had occurred. Data was utilized only if >95% of the injected volume was recovered. Using commercial software (Igor Pro, version 4.0.5.1; WaveMetrics, Lake Oswego, Oreg.), values of LV pressure (P) and volume (V) were fitted according to the equation: […]
# where β is the base constant and α is an index of ventricular stiffness, as previously described (Mirsky I. Assessment of passive elastic stiffness of cardiac muscle: mathetical concepts, physiologic and clinical considerations, directions of future research. Prog Cardiovasc Dis. 1976; 18:277-308). […]
# [2] = tested on: rats with HF induced by LAD ligation; assay: Body weight and heart weight in LAD ligation ischemic HF rats (Example 5); details: mean ± SD, 9 weeks oral therapy; for Heart Wt: HF 2.16 ± 0.33, Sham 1.72 ± 0.09; for % Δ Weight (percentage change in pre-treatment to post-treatment weights): clenbuterol 1 mg/kg/day, metoprolol 200 mg/kg/day, HF 33.8 ± 4.79, Sham 76.1 ± 19.3
# Method: All studies were performed in compliance with the Guide for the Care and Use of Laboratory Animals (NRC 1996) and were approved by the Institutional Animal Care and Use Committee of Columbia University. Sprague-Dawley rats (Charles River Laboratories, Wilmington, Mass.) weighing 250 to 300 g were used for all experiments. Food and water were provided ad libitum, with rats housed in a light- and temperature-controlled room over the 12-week study period.
# After the induction of general anesthesia with the use of intraperitoneal ketamine (75 mg/kg; Fort Dodge Animal Health, Fort Dodge, Iowa) and xylazine (5 mg/kg; Lloyd Laboratories, Shenandoah, Iowa), endotracheal intubation with a 16-guage angiocathether was performed. Rats were supported by a small animal ventilator (Harvard Apparatus, Holliston, Mass.). After performing a left thoracotomy, a sham operation (pericardiectomy only) or left anterior descending artery (LAD) ligation with a 7-0 polypropylene suture was performed. Subsequently, a chest tube (16-guage angiocathether) was placed in the left pleural space prior to closing the incision in three layers. Finally, the chest tube was used to aspirate the pleural cavity and removed after extubation.
# as §1
# Clenbuterol (ICN Biomedicals, Aurora, Ohio) was sonicated and subsequently dissolved in the drinking water. Metoprolol (Sigma-Aldrich, St. Louis, Mo.) was dissolved in the drinking water either alone or in combination with clenbuterol for the Clen+Meto group. The concentrations of clenbuterol and metoprolol were varied to keep the study drug dose delivered within a narrow therapeutic window based on daily water consumption. […]
# Body weight was measured pre-surgery and 3 and 12 weeks post-surgery. Heart weight was measured immediately after the heart was excised. The ratio of body weight to heart weight was subsequently calculated.
# [3] = tested on: myocytes (TUNEL, 8-oxoG, MYH, OGG1 staining); assay: Quantitative immunohistochemistry staining of apoptosis, DNA damage and DNA repair markers (Example 5); details: mean ± SD; for 8-oxoG: DNA damage product, HF 18 ± 4, Sham 0.5 ± 0.1; for OGG1: DNA repair marker, HF 0.5 ± 0.1, Sham 0.2 ± 0.1; for TUNEL: percentage of myocytes with nuclear staining, HF 21 ± 4, Sham 0.5 ± 0.1; for MYH (score): score 0 = 0%, 1 = 0-15%, 2 = 15-30%, 3 = 30-50%, 4 = >50% positive, HF 1.4 ± 0.5, Sham 0.6 ± 0.2
# Method: as §1
# A short-axis section of the heart at the point of maximal infarction was fixed in 4% paraformaldehyde solution for 12 hours. Sections were then embedded in paraffin and 5 μm slices used for trichrome staining. The infarct size was determined as a percentage of the LV circumference under light microscopy by a single individual (S.X.) blinded to group assignment. The remaining heart tissue was flash-frozen in liquid nitrogen and stored at −80° C. for Western blot analysis.
# Histological sections (5 μm thick) were used to perform immunohistochemistry for: terminal deoxynucleotidyltransferase end labeling (TUNEL; apoptosis marker), 8-oxoG (DNA damage product), MYH (DNA mismatch repair enzyme), and OGG1 (DNA base excision repair enzyme). The percentage of myocytes with nuclear staining was quantified in a blinded manner. Because OGG1 is found both in the nucleus and cytoplasm, a scoring system was utilized to semi-quantitatively describe the staining observed: 0=no staining; 1=0 to 15% staining; 2=15 to 30% staining; 3=30 to 50% staining; and 4=>50% staining of the nucleus and cytoplasm.
SMILES,"passive LV Volume at 30 mmHg, normalized for heart weight [1]","shift of EDPVR curve versus Sham rats ([1]; ex vivo, normalized for heart weight)",Heart Wt [2],% Δ Weight (percentage change in pre-treatment to post-treatment weights) [2],8-oxoG [3],OGG1 [3],TUNEL [3],MYH (score) [3]
"COCCc1ccc(OCC(O)CNC(C)C)cc1 (stereo not drawn) [Meto, metoprolol]",0.51 mL/gm of heart weight,rightward shift,2.17 ± 0.34 gm,32.3 ± 7.16 %,12 ± 3 † %,6.4 ± 1.5 † %,12 ± 4 † %,2.6 ± 0.4 † score
"CC(C)(C)NCC(O)c1cc(Cl)c(N)c(Cl)c1 (stereo not drawn) [Clen, clenbuterol]",0.42 mL/gm of heart weight,,2.64 ± 0.41 § † gm,49.9 ± 7.18 † %,10 ± 2 † %,8.2 ± 2.2 † %,11 ± 3 † %,2.8 ± 0.5 † score
